# Measurements from patent US20060148782A1, “Method and medicine for treating a mammal presenting urinary incontinence, urinary urgency, or both” (priority 2003, published 2006).
# Counter-ions that a name gives are not always drawn.
# Columns and labels:
# [1] = system: urinary incontinence and/or urinary urgency; experiment: Treatment of patients presenting urinary incontinence and/or urinary urgency (case examples)
# Procedure: The patient stops taking the daily dosages.
# The complaints include urinary incontinence and/or urinary urgency (awake and sleeping).
# The patient is treated with a total daily dose of medicine, which includes 50 mg of tricyclic antidepressant (imipramine hydrochloride) and 300 mg of stool softener (docusate sodium).
# The complaints include chronic urinary incontinence and/or urinary urgency.
# The patient is treated with a total daily dose of medicine, which includes 50 mg of imipramine hydrochloride and 350 mg of stool softener (docusate sodium), ingested separately.
# The complaints include chronic, intermittent urinary incontinence and urinary urgency.
# The patient is treated with a total daily dose of medicine, which includes an admixture of 25 mg of imipramine hydrochloride and 275 mg of stool softener (docusate sodium).
# [2] = Side effects reported by treated patients
# Procedure: The patient is treated with a total daily dose of medicine, which includes an admixture of 25 mg of imipramine hydrochloride and 275 mg of stool softener (docusate sodium). […] A selective beta-blocker is administered in response to tachycardia on an as-needed basis.
# [3] = system: urinary incontinence; experiment: Treatment of a group of cats and dogs presenting urinary incontinence; type: in vivo; details: admixture of 5 mg/day imipramine hydrochloride and 100 mg stool softener (or by weight), oral, after several days; group of twenty cats and dogs
# Source text: A group of twenty mammals, including female and male cats and dogs, present with urinary incontinence.
smiles,measurement,setting,value
"CN(C)CCCN1c2ccccc2CCc2ccccc21 [imipramine hydrochloride, Imipramine hydrochloride]",control of bladder functions (awake and sleeping) noted by patient,"[1]; 50 mg/day imipramine hydrochloride and 300 mg docusate sodium, oral, after several days",full control of bladder functions
same,control of bladder functions (awake and sleeping) noted by patient,"[1]; 50 mg/day imipramine hydrochloride and 350 mg docusate sodium, ingested separately, oral, after several days",partial to full control of bladder functions
same,control of bladder functions (awake and sleeping) noted by patient,"[1]; 75 mg/day imipramine hydrochloride (25 mg/3 times daily) and a stool softener, oral, after several days",partial to full control of bladder functions
same,control of bladder functions (awake and sleeping) noted by patient,"[1]; admixture of 25 mg/day imipramine hydrochloride and 275 mg docusate sodium, oral, after several days",partial to full control of bladder functions
same,adverse side effects,"[2]; 75 mg/day imipramine hydrochloride (25 mg/3 times daily) and a stool softener, oral",tolerates a dry mouth
same,adverse side effects,"[2]; admixture of 25 mg/day imipramine hydrochloride and 275 mg docusate sodium, selective beta-blocker given as needed",tachycardia
same,reduction or elimination of urinary incontinence,[3],reduction or elimination of urinary incontinence for a significant portion of the members of the group
"CN(C)CCCN1c2ccccc2CCc2ccccc21.CN(C)CCCN1c2ccccc2CCc2ccccc21.O=C(O)c1cc2ccccc2c(Cc2c(O)c(C(=O)O)cc3ccccc23)c1O [imipramine pamoate, 5-[3-(dimethylamino)]propyl-10,11-dihydro-5H-dibenzazepine 4,4-methlyenebis-(3-hydroxy-2-napthoate)]",control of bladder functions noted by patient,"[1]; 75 mg/day imipramine pamoate without stool softener, oral, after several days",full control of bladder functions
same,recurrence of symptoms after stopping daily dosages,[1]; after about three days without treatment,bladder urgency and incontinence recur
same,adverse side effects,"[2]; 75 mg/day imipramine pamoate without stool softener, oral",develops constipation
